Our source for the IC50 values is BindingDB's records for patent WO2021069705 (MONTE ROSA THERAPEUTICS AG, 2021).

The experiment deals with Protein cereblon (Homo sapiens, UniProt Q96SW2). Kind of experiment: Protocol for Fluorescent Polarization assay. On the procedure: Compound activity was monitored in a fluorescence polarization (FP) homogeneous assay using 1 -[5-({2-[2-(2-{[2-(2,6-dioxopiperidin-3-yl)-1 ,3-dioxo-2,3-dihydro-1 H-isoindol-4-yl]oxy}acetamido)ethoxy]ethyl}carbamoyl)pentyl]-3,3-dimethyl-2-[(1 E,3E)-5-[(2E)-1 ,3,3-trimethyl-5-sulfo-2,3-dihydro-1 H-indol-2-ylidene]penta-1 ,3-dien-1 -yl]-3H-indol-1 -ium-5-sulfonate as a fluorescent probe. Unless otherwise stated, all reagents were purchased from Sigma Aldrich. Enzymatic reactions were conducted in Perkin-Elmer Black 384 well ProxiPlate Plus (catalogue no. 6008269) in 10 μL total volume. Full length wild-type cereblon CRBN (80.0 nM, 10 μL) was incubated in assay buffer containing 20 mM HEPES (pH 8.0), 1 50 NaCl, 0.5 mM TCEP and 0.05% Tween 20 in the presence or absence of compound (300 nL). Inhibitors were stored as 10 mM DMSO stocks in an inert environment (low humidity, dark, low oxygen, room temperature) using the Storage Pod System. Compounds and DMSO were dispensed using the Echo E5XX (Labcyte Inc. USA) to give concentrations from 300 to 0.937 or 3000 to 9.3 nM in a 1 2 data point curve. […] FP was measured after a period of 1 2 hours using a Pherastar plate reader (BMG Labtech, Germany) exciting at 590 nm and measuring the amount of parallel and perpendicular light at 675 nm. […]
Chain of Protein cereblon (Q96SW2 whole entry): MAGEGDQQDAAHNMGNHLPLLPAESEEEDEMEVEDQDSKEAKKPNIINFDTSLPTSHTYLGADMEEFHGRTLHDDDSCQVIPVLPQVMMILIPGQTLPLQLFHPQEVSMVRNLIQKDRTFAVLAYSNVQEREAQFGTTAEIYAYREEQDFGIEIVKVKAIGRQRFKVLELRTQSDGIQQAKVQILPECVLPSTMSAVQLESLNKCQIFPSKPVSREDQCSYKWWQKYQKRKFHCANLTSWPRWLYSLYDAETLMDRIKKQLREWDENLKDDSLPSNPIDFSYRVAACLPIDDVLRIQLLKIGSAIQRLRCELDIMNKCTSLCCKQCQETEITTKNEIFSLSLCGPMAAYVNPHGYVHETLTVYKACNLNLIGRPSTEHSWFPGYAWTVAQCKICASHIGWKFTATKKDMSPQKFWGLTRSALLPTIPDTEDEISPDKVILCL

By IC50 is commonly meant the concentration that inhibits the measured activity by half. As for `O=C1CCC(N2Cc3ccc(CNC(=O)Nc4ccc(Br)cc4)cc3C2=O)C(=O)N1` (stereo unspecified) [WO2021069705, Compound 9], the 50% inhibitory concentration (IC50) was 617 nM.
